The text below walks through data of PubChem BioAssay (NCI).

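Method: 48-hour compound exposure of cells in 96-well plates, five concentrations, linear interpolation of endpoints. GI50 is the concentration that inhibits growth by half. The concentration for full growth arrest is given as TGI.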

One assay has as its system NCI-H23 lung. Kind of assay: DTP human tumour cell line panel, 48 h.
`COc1cc2ccc3c4cc(OC)c(OC(C)C)cc4cnc3c2cc1OC`: the TGI was greater than 100 µM.
`CN1NC(=Nc2ccccc2)Sc2c1cnn(-c1ccccc1)c2=O` gave a TGI greater than 100 µM.
For `C1C[OH+]CCNCC[OH+]CC[OH+]CCN1.[Cl-].[Pt+4]`, the GI50 is greater than 100 µM and the TGI is greater than 100 µM.
Turning to `CC(=O)c1sc(-c2nc(C)c(C(=O)/C=C\c3ccc(/C=C\C(=O)c4sc(-c5nc(C)c(C(C)=O)s5)nc4C)cc3)s2)nc1C`, the TGI is greater than 100 µM.
Still for that read-out and setting: in the case of `COC(=O)/C(C)=C/[N+](=O)[O-]` it was 41.2 µM.
For `Cc1ccc(C2(O)CC(c3ccc([N+](=O)[O-])o3)=NN2C(=O)COc2ccc(Cl)cc2)cc1` (stereo not given), the TGI worked out at 11.9 µM.
`CC1=NN(C(=O)CC(=O)N(C(=O)c2ccccc2Cl)c2ccc(C)cc2)C(=O)C1N=Nc1ccc([N+](=O)[O-])cc1` (stereo not given) displayed a TGI greater than 100 µM.
`COc1cccc(-n2c3nc(=O)n(C)c(=O)c-3nc3ccccc32)c1` gave a TGI of 62 µM.
As for `CC(C)(C=O)CC(C#N)/C(=N\NC(N)=O)C(=O)Nc1ccccc1C(N)=O` (stereo not given), the TGI was greater than 100 µM.
Compound `Cc1cc(C)c(C2[C@H]3C(=O)N(c4ccc(Cc5ccc(N6C(=O)[C@@H]7ON(c8ccccc8)C(c8c(C)cc(C)cc8C)[C@@H]7C6=O)cc5)cc4)C(=O)[C@H]3ON2c2ccccc2)c(C)c1` (stereo not given in full) came in with a TGI greater than 100 µM.
In the case of `COC(=O)OCC1OC(N2C(=O)NC(=O)C(Br)C2N=[N+]=[N-])CC1OC(=O)OC` (stereo not given), the TGI is greater than 100 µM.
For the compound `CC12CCCCC1(C)C2Sc1ccccc1` (stereo not given), the TGI was greater than 100 µM.
`CCCCOC(=O)NC(=O)c1cn(CCCOC(=O)NCCCCCCNC(=O)OCCCn2cc(C(=O)NC(=O)OCCCC)c(=O)[nH]c2=O)c(=O)[nH]c1=O` displayed a TGI greater than 100 µM.
The compound `COc1cc(C)c2c(c1C)OC(=O)c1c(C)c(Cl)c(O)c(C=O)c1O2` yielded a TGI of 32 µM.
`C=C1C[C@]23CCC4C(C)(C)C(=O)CC[C@]4(C)C2C[C@H]1C(O)C3=O` (stereo not given in full): the TGI is greater than 75 µM.
With `Cc1ccc(S(=O)(=O)NCCNc2nccc(-c3c(-c4ccc(F)cc4)nc4sccn34)n2)cc1`, the GI50 was 7.14 µM and the TGI came out at 70.9 µM.
Regarding `N.N.N.N.[Cl-].[Co+3].[N-]=[N+]=[N-].[N-]=[N+]=[N-]`, the GI50 is greater than 100 µM and the TGI is greater than 100 µM.
In the case of `Cc1cc(NS(=O)(=O)c2ccc(Nc3c4ccccc4nc4c(C(=O)NCCN(C)C)cccc34)cc2)no1`, the TGI was greater than 100 µM.
In turn, `Nc1nc(CCl)nc(Nc2ccccc2)n1` came in with a TGI of 38.7 µM.
Same read-out and setting: in the case of `O=S1OC2(c3ccccc3-c3ccccc32)c2ccccc21` (stereo not given) it was greater than 100 µM.
Compound `CCOC(=N)CC(=O)Nc1cccc(C)c1C` came in with a concentration for total growth inhibition (TGI) greater than 100 µM.

The next assay relates to UO-31 renal. The experiment in a line: DTP human tumour cell line panel, 48 h.
`COc1cc2ccc3c4cc(OC)c(OC(C)C)cc4cnc3c2cc1OC` came in with a TGI greater than 100 µM.
Still for that read-out and setting: as for `CN1NC(=Nc2ccccc2)Sc2c1cnn(-c1ccccc1)c2=O`, the figure is greater than 100 µM.
As for `C1C[OH+]CCNCC[OH+]CC[OH+]CCN1.[Cl-].[Pt+4]`, the GI50 was greater than 100 µM and the TGI is greater than 100 µM.
The compound `CC(=O)c1sc(-c2nc(C)c(C(=O)/C=C\c3ccc(/C=C\C(=O)c4sc(-c5nc(C)c(C(C)=O)s5)nc4C)cc3)s2)nc1C` gave a TGI greater than 100 µM.
The compound `COC(=O)/C(C)=C/[N+](=O)[O-]` displayed a TGI of 33.3 µM.
On the same count and under the same terms, as for `Cc1ccc(C2(O)CC(c3ccc([N+](=O)[O-])o3)=NN2C(=O)COc2ccc(Cl)cc2)cc1` (stereo not given), the figure is 16.2 µM; as for `CC1=NN(C(=O)CC(=O)N(C(=O)c2ccccc2Cl)c2ccc(C)cc2)C(=O)C1N=Nc1ccc([N+](=O)[O-])cc1` (stereo not given), greater than 93.6 µM.
For the compound `COc1cccc(-n2c3nc(=O)n(C)c(=O)c-3nc3ccccc32)c1`, the TGI is greater than 100 µM.
`CC(C)(C=O)CC(C#N)/C(=N\NC(N)=O)C(=O)Nc1ccccc1C(N)=O` (stereo not given): the TGI is greater than 100 µM.
`Cc1cc(C)c(C2[C@H]3C(=O)N(c4ccc(Cc5ccc(N6C(=O)[C@@H]7ON(c8ccccc8)C(c8c(C)cc(C)cc8C)[C@@H]7C6=O)cc5)cc4)C(=O)[C@H]3ON2c2ccccc2)c(C)c1` (stereo not given in full) had a TGI greater than 100 µM.
`COC(=O)OCC1OC(N2C(=O)NC(=O)C(Br)C2N=[N+]=[N-])CC1OC(=O)OC` (stereo not given) yielded a TGI greater than 100 µM.
The same measure, in the same setting: in the case of `CC12CCCCC1(C)C2Sc1ccccc1` (stereo not given) it was greater than 100 µM; in that of `CCCCOC(=O)NC(=O)c1cn(CCCOC(=O)NCCCCCCNC(=O)OCCCn2cc(C(=O)NC(=O)OCCCC)c(=O)[nH]c2=O)c(=O)[nH]c1=O`, greater than 100 µM.
`COc1cc(C)c2c(c1C)OC(=O)c1c(C)c(Cl)c(O)c(C=O)c1O2` came in with a TGI of 76 µM.
`Nc1ccn(C2(CO)C=C(CO)C(O)C2O)c(=O)n1` (stereo not given): the TGI is greater than 25.8 µM.
As to `C=C1C[C@]23CCC4C(C)(C)C(=O)CC[C@]4(C)C2C[C@H]1C(O)C3=O` (stereo not given in full), the TGI was greater than 75 µM.
For `Cc1ccc(S(=O)(=O)NCCNc2nccc(-c3c(-c4ccc(F)cc4)nc4sccn34)n2)cc1`, the GI50 was 2.38 µM and the TGI is greater than 100 µM.
Take `N.N.N.N.[Cl-].[Co+3].[N-]=[N+]=[N-].[N-]=[N+]=[N-]`: the GI50 is 41.3 µM and the TGI was greater than 100 µM.
`CC(C)CCCC(C)[C@H]1CCC2[C@H]3C(CC[C@@]21C)[C@@]1(C)CCC=C[C@]12C[C@@H]2[C@@H]3O` (stereo not given in full): the TGI was greater than 100 µM.
In the case of `Nc1nc(CCl)nc(Nc2ccccc2)n1`, the TGI is 67.3 µM.
Compound `O=S1OC2(c3ccccc3-c3ccccc32)c2ccccc21` (stereo not given) yielded a TGI greater than 100 µM.
Compound `CCOC(=N)CC(=O)Nc1cccc(C)c1C` showed a TGI greater than 100 µM.

Another assay has as its system HOP-92 NSCLC. The experiment in a line: DTP human tumour cell line panel, 48 h.
For `COc1cc2ccc3c4cc(OC)c(OC(C)C)cc4cnc3c2cc1OC`, the TGI is greater than 100 µM.
On the same count and under the same terms, in the case of `CN1NC(=Nc2ccccc2)Sc2c1cnn(-c1ccccc1)c2=O` it was greater than 100 µM.
Turning to `C1C[OH+]CCNCC[OH+]CC[OH+]CCN1.[Cl-].[Pt+4]`, the GI50 was greater than 100 µM and the TGI was greater than 100 µM.
Turning to `COC(=O)/C(C)=C/[N+](=O)[O-]`, the TGI was 22.8 µM.
Still for that read-out and setting: as for `Cc1ccc(C2(O)CC(c3ccc([N+](=O)[O-])o3)=NN2C(=O)COc2ccc(Cl)cc2)cc1` (stereo not given), the figure is 24.3 µM.
The same measure, in the same setting: as for `CC1=NN(C(=O)CC(=O)N(C(=O)c2ccccc2Cl)c2ccc(C)cc2)C(=O)C1N=Nc1ccc([N+](=O)[O-])cc1` (stereo not given), the figure is greater than 78.5 µM.
With `COc1cccc(-n2c3nc(=O)n(C)c(=O)c-3nc3ccccc32)c1`, the TGI was found to be 72.5 µM.
`CC(C)(C=O)CC(C#N)/C(=N\NC(N)=O)C(=O)Nc1ccccc1C(N)=O` (stereo not given) registered a TGI greater than 100 µM.
Regarding `COC(=O)OCC1OC(N2C(=O)NC(=O)C(Br)C2N=[N+]=[N-])CC1OC(=O)OC` (stereo not given), the TGI was greater than 100 µM.
The compound `CC12CCCCC1(C)C2Sc1ccccc1` (stereo not given) returned a TGI of 97 µM.
With `CCCCOC(=O)NC(=O)c1cn(CCCOC(=O)NCCCCCCNC(=O)OCCCn2cc(C(=O)NC(=O)OCCCC)c(=O)[nH]c2=O)c(=O)[nH]c1=O`, the TGI is greater than 100 µM.
In the case of `N.N.N.N.[Cl-].[Co+3].[N-]=[N+]=[N-].[N-]=[N+]=[N-]`, the GI50 is greater than 100 µM and the TGI is greater than 100 µM.
For the compound `CC(C)CCCC(C)[C@H]1CCC2[C@H]3C(CC[C@@]21C)[C@@]1(C)CCC=C[C@]12C[C@@H]2[C@@H]3O` (stereo not given in full), the TGI was greater than 100 µM.
Still for that read-out and setting: as for `Nc1nc(CCl)nc(Nc2ccccc2)n1`, the figure is 33.6 µM.

A further assay has as its system RXF 393 renal. The experiment in a line: DTP human tumour cell line panel, 48 h.
As for `COc1cc2ccc3c4cc(OC)c(OC(C)C)cc4cnc3c2cc1OC`, the TGI is greater than 100 µM.
On to `CN1NC(=Nc2ccccc2)Sc2c1cnn(-c1ccccc1)c2=O`, for which the TGI was greater than 100 µM.
Consider `C1C[OH+]CCNCC[OH+]CC[OH+]CCN1.[Cl-].[Pt+4]`, for which the GI50 is greater than 100 µM and the TGI was greater than 100 µM.
The compound `CC(=O)c1sc(-c2nc(C)c(C(=O)/C=C\c3ccc(/C=C\C(=O)c4sc(-c5nc(C)c(C(C)=O)s5)nc4C)cc3)s2)nc1C` had a TGI greater than 100 µM.
As to `COC(=O)/C(C)=C/[N+](=O)[O-]`, the TGI worked out at 35.6 µM.
Compound `CC1=NN(C(=O)CC(=O)N(C(=O)c2ccccc2Cl)c2ccc(C)cc2)C(=O)C1N=Nc1ccc([N+](=O)[O-])cc1` (stereo not given) gave a TGI of 77.5 µM.
With `Cc1cc(C)c(C2[C@H]3C(=O)N(c4ccc(Cc5ccc(N6C(=O)[C@@H]7ON(c8ccccc8)C(c8c(C)cc(C)cc8C)[C@@H]7C6=O)cc5)cc4)C(=O)[C@H]3ON2c2ccccc2)c(C)c1` (stereo not given in full), the TGI is greater than 100 µM.
Regarding `COC(=O)OCC1OC(N2C(=O)NC(=O)C(Br)C2N=[N+]=[N-])CC1OC(=O)OC` (stereo not given), the TGI was greater than 100 µM.
As for `CC12CCCCC1(C)C2Sc1ccccc1` (stereo not given), the TGI was greater than 70.3 µM.
`CCCCOC(=O)NC(=O)c1cn(CCCOC(=O)NCCCCCCNC(=O)OCCCn2cc(C(=O)NC(=O)OCCCC)c(=O)[nH]c2=O)c(=O)[nH]c1=O` came in with a TGI greater than 100 µM.
With `Nc1ccn(C2(CO)C=C(CO)C(O)C2O)c(=O)n1` (stereo not given), the TGI is greater than 25.8 µM.
`C=C1C[C@]23CCC4C(C)(C)C(=O)CC[C@]4(C)C2C[C@H]1C(O)C3=O` (stereo not given in full) showed a TGI greater than 75 µM.
For `Cc1ccc(S(=O)(=O)NCCNc2nccc(-c3c(-c4ccc(F)cc4)nc4sccn34)n2)cc1`, the GI50 was 4.02 µM and the TGI amounted to 29.4 µM.
For the compound `CC(C)CCCC(C)[C@H]1CCC2[C@H]3C(CC[C@@]21C)[C@@]1(C)CCC=C[C@]12C[C@@H]2[C@@H]3O` (stereo not given in full), the TGI was greater than 100 µM.
`Cc1cc(NS(=O)(=O)c2ccc(Nc3c4ccccc4nc4c(C(=O)NCCN(C)C)cccc34)cc2)no1` showed a TGI of 22.8 µM.
Turning to `O=S1OC2(c3ccccc3-c3ccccc32)c2ccccc21` (stereo not given), the TGI is greater than 100 µM.
Regarding `CCOC(=N)CC(=O)Nc1cccc(C)c1C`, the concentration for total growth inhibition (TGI) was greater than 100 µM.

In another assay the test system is A549 NSCLC. Kind of assay: DTP human tumour cell line panel, 48 h.
The compound `COc1cc2ccc3c4cc(OC)c(OC(C)C)cc4cnc3c2cc1OC` registered a TGI greater than 100 µM.
In the case of `CN1NC(=Nc2ccccc2)Sc2c1cnn(-c1ccccc1)c2=O`, the TGI is greater than 100 µM.
Regarding `C1C[OH+]CCNCC[OH+]CC[OH+]CCN1.[Cl-].[Pt+4]`, the GI50 is greater than 100 µM and the TGI is greater than 100 µM.
Compound `CC(=O)c1sc(-c2nc(C)c(C(=O)/C=C\c3ccc(/C=C\C(=O)c4sc(-c5nc(C)c(C(C)=O)s5)nc4C)cc3)s2)nc1C` came in with a TGI greater than 100 µM.
Same read-out and setting: in the case of `COC(=O)/C(C)=C/[N+](=O)[O-]` it was 44.1 µM.

By TGI is commonly meant the concentration at which net growth stops. Lower therefore signals greater sensitivity of the cells. For orientation: GI50 means the concentration giving 50% growth inhibition.
